These results are taken from patent publication US9499550B2 (BRISTOL-MYERS SQUIBB COMPANY, priority 2012, dated 2016).

SMILES strings stand for the structures. Like-named read-outs stand apart in the source and are kept apart here.

The subject of test [1] is HCV genotype 1a (H77 strain) replicon in HUH-7 cells. Nature of the test: HCV replicon luciferase reporter assay, genotype 1a. Conditions: HCV genotype 1a replicon luciferase, 3 days incubation, read-out: LE_1a (EC50, range). The class given is cell-based. Summed up: (§1)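 Replicon inhibition for both genotypes was measured as Renilla luciferase signal (EnduRen, 7.5 μM final, 2 h) after 3-day, 37° C exposure of replicon-bearing HUH-7 cells in 4% FCS DMEM, 0.5% DMSO. The 1b construct carries S1179I; the 1a H77 construct carries P1496L and S2204I. Twenty-point, 3-fold dilutions were fitted four-parametrically for EC50, and CC50 was taken from multiplexed Cell Titer-Blue.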

Test [2] has as its system HCV genotype 1b (Con1) replicon in HUH-7 cells. Nature of the test: HCV replicon luciferase reporter assay, genotype 1b. In kind it is cell-based. Conditions: HCV genotype 1b replicon luciferase, 3 days incubation, read-out: LE_1b (EC50, range). The method, boiled down: as §1

What is called EC50 is the concentration that produces a half-maximal response.

Take `C[C@H]1CC/C=C\[C@@H]2C[C@@]2(C(=O)NS(=O)(=O)C2(CF)CC2)NC(=O)[C@@H]2C[C@@H](Oc3nc4c(c5ccccc35)OCCC4)CN2C(=O)[C@@H](NC(=O)OC(C)(C)C(C)(F)F)[C@H](C)C1` [Compound 6039, 3,3-difluoro-2-methylbutan-2-yl((2R,6S,7R,9S,13aS,14aR,16aS,Z)-2-((3,4-dihydro-2H-pyrano[3,2-c]isoquinolin-6-yl)oxy)-14a-(((1-(fluoromethyl)cyclopropyl)sulfonyl)carbamoyl)-7,9-dimethyl-5,16-dioxo-1,2,3,5,6,7,8,9,10,11,13a,14,14a,15,16,16a-hexadecahydrocyclopropa[e]pyrrolo[1,2-a][1,4]diazacyclopentadecin-6-yl)carbamate]: the EC50 in test [1] and in test [2] was 5.01 to 35 nM throughout.
On to `C[C@@H]1CC/C=C\[C@@H]2C[C@@]2(C(=O)NS(=O)(=O)C2(CF)CC2)NC(=O)[C@@H]2C[C@@H](Oc3nc4c(c5ccccc35)OCCC4)CN2C(=O)[C@@H](NC(=O)OC(C)(C)C(C)(F)F)[C@H](C)C1` [Compound 6040, 3,3-difluoro-2-methylbutan-2-yl((2R,6S,7R,9R,13aS,14aR,16aS,Z)-2-((3,4-dihydro-2H-pyrano[3,2-c]isoquinolin-6-yl)oxy)-14a-(((1-(fluoromethyl)cyclopropyl)sulfonyl)carbamoyl)-7,9-dimethyl-5,16-dioxo-1,2,3,5,6,7,8,9,10,11,13a,14,14a,15,16,16a-hexadecahydrocyclopropa[e]pyrrolo[1,2-a][1,4]diazacyclopentadecin-6-yl)carbamate], for which the EC50 in test [1] lay within 1.01 to 5 nM; in test [2], 0.51 to 1 nM.
As to `C[C@@H]1CC/C=C\[C@@H]2C[C@@]2(C(=O)NS(=O)(=O)C2(CF)CC2)NC(=O)[C@@H]2C[C@@H](Oc3nc4c(c5ccccc35)CCCO4)CN2C(=O)[C@@H](NC(=O)OC(C)(C)C)[C@H](C)C1` [Compound 6042, tert-butyl ((2R,6S,7R,9R,13aS,14aR,16aS,Z)-2-((2,3-dihydro-1H-pyrano[2,3-c]isoquinolin-6-yl)oxy)-14a-(((1-(fluoromethyl)cyclopropyl)sulfonyl)carbamoyl)-7,9-dimethyl-5,16-dioxo-1,2,3,5,6,7,8,9,10,11,13a,14,14a,15,16,16a-hexadecahydrocyclopropa[e]pyrrolo[1,2-a][1,4]diazacyclopentadecin-6-yl)carbamate], the EC50 is 1.01 to 5 nM in test [1] (Hepatitis C virus, Huh-7, 72 h) and 0.51 to 1 nM in test [2] (Hepatitis C virus, Huh-7, 72 h).
For the molecule `C[C@@H]1CC/C=C\[C@@H]2C[C@@]2(C(=O)NS(=O)(=O)C2(C)CC2)NC(=O)[C@@H]2C[C@@H](Oc3nc4c(c5ccccc35)CCCO4)CN2C(=O)[C@@H](NC(=O)OC(C)(C)C)[C@H](C)C1` [Compound 6044, tert-butyl ((2R,6S,7R,9R,13aS,14aR,16aS,Z)-2-((2,3-dihydro-1H-pyrano[2,3-c]isoquinolin-6-yl)oxy)-7,9-dimethyl-14a-(((1-methylcyclopropyl)sulfonyl)carbamoyl)-5,16-dioxo-1,2,3,5,6,7,8,9,10,11,13a,14,14a,15,16,16a-hexadecahydrocyclopropa[e]pyrrolo[1,2-a][1,4]diazacyclopentadecin-6-yl)carbamate], the EC50 lay in the range of 1.01 to 5 nM in test [1] (Hepatitis C virus, Huh-7, 72 h) and 0.1 to 0.5 nM in test [2] (Hepatitis C virus, Huh-7, 72 h).
In the case of `C[C@@H]1CC/C=C\[C@@H]2C[C@@]2(C(=O)NS(=O)(=O)C2(C)CC2)NC(=O)[C@@H]2C[C@@H](Oc3nc4c(c5ccccc35)CCCO4)CN2C(=O)[C@@H](NC(=O)OC(C)(C)C(F)(F)F)[C@H](C)C1` [Compound 6046, 1,1,1-trifluoro-2-methylpropan-2-yl((2R,6S,7R,9R,13aS,14aR,16aS,Z)-2-((2,3-dihydro-1H-pyrano[2,3-c]isoquinolin-6-yl)oxy)-7,9-dimethyl-14a-(((1-methylcyclopropyl)sulfonyl)carbamoyl)-5,16-dioxo-1,2,3,5,6,7,8,9,10,11,13a,14,14a,15,16,16a-hexadecahydrocyclopropa[e]pyrrolo[1,2-a][1,4]diazacyclopentadecin-6-yl)carbamate], the EC50 fell in the range of 1.01 to 5 nM in test [1] (Hepatitis C virus, Huh-7, 72 h) and 0.51 to 1 nM in test [2] (Hepatitis C virus, Huh-7, 72 h).
Turning to `C[C@@H]1CC/C=C\[C@@H]2C[C@@]2(C(=O)NS(=O)(=O)C2(C)CC2)NC(=O)[C@@H]2C[C@@H](Oc3nc4c(c5ccccc35)CCCO4)CN2C(=O)[C@@H](NC(=O)OC(C)(C)C(C)(F)F)[C@H](C)C1` [Compound 6048, 3,3-difluoro-2-methylbutan-2-yl((2R,6S,7R,9R,13aS,14aR,16aS,Z)-2-((2,3-dihydro-1H-pyrano[2,3-c]isoquinolin-6-yl)oxy)-7,9-dimethyl-14a-(((1-methylcyclopropyl)sulfonyl)carbamoyl)-5,16-dioxo-1,2,3,5,6,7,8,9,10,11,13a,14,14a,15,16,16a-hexadecahydrocyclopropa[e]pyrrolo[1,2-a][1,4]diazacyclopentadecin-6-yl)carbamate], the EC50 in test [1] (Hepatitis C virus, Huh-7, 72 h) fell in the range of 1.01 to 5 nM; in test [2] (Hepatitis C virus, Huh-7, 72 h), 0.1 to 0.5 nM.
As for `C[C@@H]1CC/C=C\[C@@H]2C[C@@]2(C(=O)NS(=O)(=O)C2(CF)CC2)NC(=O)[C@@H]2C[C@@H](Oc3nc4c(c5ccccc35)CCCO4)CN2C(=O)[C@@H](NC(=O)OC(C)(C)C(F)(F)F)[C@H](C)C1` [Compound 6050, 1,1,1-trifluoro-2-methylpropan-2-yl((2R,6S,7R,9R,13aS,14aR,16aS,Z)-2-((2,3-dihydro-1H-pyrano[2,3-c]isoquinolin-6-yl)oxy)-14a-(((1-(fluoromethyl)cyclopropyl)sulfonyl)carbamoyl)-7,9-dimethyl-5,16-dioxo-1,2,3,5,6,7,8,9,10,11,13a,14,14a,15,16,16a-hexadecahydrocyclopropa[e]pyrrolo[1,2-a][1,4]diazacyclopentadecin-6-yl)carbamate], the EC50 in test [1] (Hepatitis C virus, Huh-7, 72 h) was 1.01 to 5 nM; in test [2] (Hepatitis C virus, Huh-7, 72 h), 0.1 to 0.5 nM.
For `C[C@@H]1CC/C=C\[C@@H]2C[C@@]2(C(=O)NS(=O)(=O)C2(CF)CC2)NC(=O)[C@@H]2C[C@@H](Oc3nc4c(c5ccccc35)CCCO4)CN2C(=O)[C@@H](NC(=O)OC(C)(C)C(C)(F)F)[C@H](C)C1` [Compound 6052, 3,3-difluoro-2-methylbutan-2-yl((2R,6S,7R,9R,13aS,14aR,16aS,Z)-2-((2,3-dihydro-1H-pyrano[2,3-c]isoquinolin-6-yl)oxy)-14a-(((1-(fluoromethyl)cyclopropyl)sulfonyl)carbamoyl)-7,9-dimethyl-5,16-dioxo-1,2,3,5,6,7,8,9,10,11,13a,14,14a,15,16,16a-hexadecahydrocyclopropa[e]pyrrolo[1,2-a][1,4]diazacyclopentadecin-6-yl)carbamate], the EC50 fell in the range of 5.01 to 35 nM in test [1] (Hepatitis C virus, Huh-7, 72 h) and 0.1 to 0.5 nM in test [2] (Hepatitis C virus, Huh-7, 72 h).
For `CC[C@@H]1C[C@H](C)CC/C=C\[C@@H]2C[C@@]2(C(=O)NS(=O)(=O)C2(C)CC2)NC(=O)[C@@H]2C[C@@H](Oc3nc4c(c5ccccc35)CCCO4)CN2C(=O)[C@H]1NC(=O)OC(C)(C)C(F)(F)F` [Compound 6054, 1,1,1-trifluoro-2-methylpropan-2-yl((2R,6S,7R,9R,13aS,14aR,16aS,Z)-2-((2,3-dihydro-1H-pyrano[2,3-c]isoquinolin-6-yl)oxy)-7-ethyl-9-methyl-14a-(((1-methylcyclopropyl)sulfonyl)carbamoyl)-5,16-dioxo-1,2,3,5,6,7,8,9,10,11,13a,14,14a,15,16,16a-hexadecahydrocyclopropa[e]pyrrolo[1,2-a][1,4]diazacyclopentadecin-6-yl)carbamate], the EC50 in test [1] (Hepatitis C virus, Huh-7, 72 h) was in the range of 1.01 to 5 nM; in test [2] (Hepatitis C virus, Huh-7, 72 h), 0.1 to 0.5 nM.
As to `CC[C@@H]1C[C@H](C)CC/C=C\[C@@H]2C[C@@]2(C(=O)NS(=O)(=O)C2(C)CC2)NC(=O)[C@@H]2C[C@@H](Oc3nc4c(c5ccccc35)CCCO4)CN2C(=O)[C@H]1NC(=O)OC(C)(C)C(C)(F)F` [Compound 6056, 3,3-difluoro-2-methylbutan-2-yl((2R,6S,7R,9R,13aS,14aR,16aS,Z)-2-((2,3-dihydro-1H-pyrano[2,3-c]isoquinolin-6-yl)oxy)-7-ethyl-9-methyl-14a-(((1-methylcyclopropyl)sulfonyl)carbamoyl)-5,16-dioxo-1,2,3,5,6,7,8,9,10,11,13a,14,14a,15,16,16a-hexadecahydrocyclopropa[e]pyrrolo[1,2-a][1,4]diazacyclopentadecin-6-yl)carbamate], the EC50 fell in the range of 1.01 to 5 nM in test [1] (Hepatitis C virus, Huh-7, 72 h) and 0.1 to 0.5 nM in test [2] (Hepatitis C virus, Huh-7, 72 h).
On to `C[C@@H]1CC/C=C\[C@@H]2C[C@@]2(C(=O)NS(=O)(=O)C2(C)CC2)NC(=O)[C@@H]2C[C@@H](Oc3nccc4c5c(ccc34)CCCO5)CN2C(=O)[C@@H](NC(=O)OC(C)(C)C(F)(F)F)[C@H](C)C1` [Compound 6058, 1,1,1-trifluoro-2-methylpropan-2-yl((2R,6S,7R,9R,13aS,14aR,16aS,Z)-2-((3,4-dihydro-2H-pyrano[2,3-f]isoquinolin-7-yl)oxy)-7,9-dimethyl-14a-(((1-methylcyclopropyl)sulfonyl)carbamoyl)-5,16-dioxo-1,2,3,5,6,7,8,9,10,11,13a,14,14a,15,16,16a-hexadecahydrocyclopropa[e]pyrrolo[1,2-a][1,4]diazacyclopentadecin-6-yl)carbamate], for which the EC50 in test [1] (Hepatitis C virus, Huh-7, 72 h) was in the range of 1.01 to 5 nM; in test [2] (Hepatitis C virus, Huh-7, 72 h) it was 0.51 to 1 nM.
With `C[C@@H]1CC/C=C\[C@@H]2C[C@@]2(C(=O)NS(=O)(=O)C2(C)CC2)NC(=O)[C@@H]2C[C@@H](Oc3nccc4c5c(ccc34)CCCO5)CN2C(=O)[C@@H](NC(=O)OC(C)(C)C(C)(F)F)[C@H](C)C1` [Compound 6060, 3,3-difluoro-2-methylbutan-2-yl((2R,6S,7R,9R,13aS,14aR,16aS,Z)-2-((3,4-dihydro-2H-pyrano[2,3-f]isoquinolin-7-yl)oxy)-7,9-dimethyl-14a-(((1-methylcyclopropyl)sulfonyl)carbamoyl)-5,16-dioxo-1,2,3,5,6,7,8,9,10,11,13a,14,14a,15,16,16a-hexadecahydrocyclopropa[e]pyrrolo[1,2-a][1,4]diazacyclopentadecin-6-yl)carbamate], the EC50 in test [1] (Hepatitis C virus, Huh-7, 72 h) lay within 1.01 to 5 nM; in test [2] (Hepatitis C virus, Huh-7, 72 h), 1.01 to 5 nM.
